Test results as given in patent US20220409608A1, “DIMERIC NAPHTHALIMIDE FORMULATIONS” (ALUCENT BIOMEDICAL, INC., priority 2019, published 2022).
Blank lines part the entries; values can stand above or below the compound they belong to.

Experiments:
Assay type in all cases: physicochemical
[1] = Stability of formulations at 40° C. at various pH values (impurities by UPLC)
Protocol: (§1) The purity of a composition was analyzed by UPLC on a 2.1×100 mm C18 column with 1.7 μm packing. The analytical method was a 7 minute gradient at 30° C. and a flowrate of 0.61 mL/min consisting of acetonitrile, water, and trifluoracetic acid. Absorption was measured at 210 nm and 440 nm.
To determine the stability of the formulations described herein, the amount of impurities was measured. A formulation was added to a 10 mL amber vial and stored at 40° C. in a constant temperature chamber. At the desired time point(s), the formulation was analyzed by UPLC and the pH was measured. No change in physical appearance was observed.

[2] = Combination of exemplary composition and radiographic contrast agent, UPLC; conditions: for Increase in the amount of impurities of Compound of Formula (I), HPLC chromatograms: initial and 24-hour timepoints
Protocol: as §1
Equal volumes of a formulation from Example 1 and radiographic contrast agent (Omnipaque or Isovue), as received from the manufacturer, were drawn into separate syringes. The two syringes were connected to an indeflator by a three-way joint/stopcock. The indeflator was evacuated and the mixtures from both syringes were transferred into the indeflator. The indeflator was then inverted six times to ensure complete mixing of the mixtures. The resulting mixture was a yellow/orange translucent mixture, stored in an amber scintillation vial at room temperature, and analyzed by UPLC upon storage and after 24 hours.

[3] = Combination of exemplary composition and paclitaxel injection solution, UPLC; conditions: for Compound of Formula (I) (HPLC area-%) / Total impurities (HPLC area-%): equal volumes of formulation and paclitaxel injection solution (6 mg/mL); for Compound of Formula (I) (HPLC area-%) / Total impurities (HPLC area-%) / Stability after being combined in the same composition: room temperature; for Stability after being combined in the same composition: seven hours after combining Compound of Formula (I) formulation and paclitaxel
Protocol: as §1
Equal volumes of a formulation from Example 1 and paclitaxel injection solution (6 mg/mL; used as received from manufacturer) were combined in an amber scintillation vial and stored at room temperature. The resulting mixture was a clear yellow solution. An aliquot was obtained, diluted 1:10 with 0.1% aqueous TFA and analyzed by UPLC as described herein. Another aliquot was obtained, 7 hours after preparation of the mixture, and similarly diluted and analyzed.

[4] = equal volumes of formulation and Isovue, room temperature, t = 0 hours
[5] = equal volumes of formulation and Isovue, room temperature, t = 24 hours
[6] = equal volumes of formulation and Omnipaque, room temperature, t = 0 hours
[7] = equal volumes of formulation and Omnipaque, room temperature, t = 24 hours

Increase in impurity concentration ([1]; composition at a pH ranging from 5 to 7): minimal
Degradation in compositions ([1]; compositions having a pH of less than 5 or greater than 7): degrade appreciably
Stability when combined with a radiographic contrast agent ([2]; after 24 hours, room temperature): stable
Compound of Formula (I) (HPLC area-%) [2, 4]: 98.98 HPLC area-%
Total impurities (HPLC area-%) [2, 4]: 1.02 HPLC area-%
Compound of Formula (I) (HPLC area-%) [2, 5]: 98.97 HPLC area-%
Total impurities (HPLC area-%) [2, 5]: 1.03 HPLC area-%
Compound of Formula (I) (HPLC area-%) [2, 6]: 98.98 HPLC area-%
Total impurities (HPLC area-%) [2, 6]: 1.02 HPLC area-%
Compound of Formula (I) (HPLC area-%) [2, 7]: 98.95 HPLC area-%
Total impurities (HPLC area-%) [2, 7]: 1.05 HPLC area-%
Increase in the amount of impurities of Compound of Formula (I), HPLC chromatograms ([2]; mixture with Isovue, FIG. 5): no increase
Increase in the amount of impurities of Compound of Formula (I), HPLC chromatograms ([2]; mixture with Omnipaque, FIG. 6): no increase
Compound of Formula (I) (HPLC area-%) ([3]; 0 hours): 98.9 HPLC area-%
Total impurities (HPLC area-%) ([3]; 0 hours): 1.1 HPLC area-%
Compound of Formula (I) (HPLC area-%) ([3]; 1 hour): 98.9 HPLC area-%
Total impurities (HPLC area-%) ([3]; 1 hour): 1.1 HPLC area-%
Compound of Formula (I) (HPLC area-%) ([3]; 4 hours): 98.9 HPLC area-%
Total impurities (HPLC area-%) ([3]; 4 hours): 1.1 HPLC area-%
Compound of Formula (I) (HPLC area-%) ([3]; 7 hours): 98.9 HPLC area-%
Total impurities (HPLC area-%) ([3]; 7 hours): 1.1 HPLC area-%
Increase in the amount of impurities of Compound of Formula (I), HPLC chromatograms ([3]; mixture with paclitaxel, 1- and 7-hour time points, FIG. 7): no increase
Stability after being combined in the same composition [3]: stable
SMILES: NCCOCCOCCNc1ccc2c3c(cccc13)C(=O)N(CCOCCOCCN1C(=O)c3cccc4c(NCCOCCOCCN)ccc(c34)C1=O)C2=O [Compound of Formula (I), 2,2′-((ethane-1,2-diylbis(oxy))bis(ethane-2,1-diyl))bis(6-((2-(2-(2-aminoethoxy)ethoxy)ethyl)amino)-1H-benzo[de]isoquinoline-1,3(2H)-dione)]

Increase in the amount of impurities of paclitaxel, HPLC chromatograms ([3]; mixture of Compound of Formula (I) and paclitaxel, 1- and 7-hour time points, FIG. 8): no increase
Stability after being combined in the same composition [3]: stable
SMILES: CC(=O)O[C@H]1C(=O)[C@@]2(C)[C@H]([C@H](OC(=O)c3ccccc3)[C@]3(O)C[C@H](OC(=O)[C@H](O)[C@@H](NC(=O)c4ccccc4)c4ccccc4)C(C)=C1C3(C)C)[C@]1(OC(C)=O)CO[C@@H]1C[C@@H]2O [paclitaxel, reference compound]
